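1) Cells in 96-well plates. 2) Compound, 48 h, 5 concentrations. 3) Linear interpolation between surrounding doses. 4) Unreached endpoint = highest concentration. The concentration for full growth arrest is given as TGI.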 Where only a bound is given, the exact number is not on record here.

Test systems include SNB-78 CNS; DLD-1 colon; XF 498 CNS; DMS 273 small cell lung; M19-MEL melanoma; SN12K1 renal; KM20L2 colon; OVCAR-8 ovarian; CAKI-1 renal; HOP-18 NSCLC; LXFL 529 NSCLC; DMS 114 small cell lung; RXF-631 renal.
Common to all, as to experiment: DTP human tumour cell line panel, 48 h

Take `O=C(CCN1CCOCC1)C(=Cc1ccccc1)C(=O)CCN1CCOCC1`: the TGI in the assay with SNB-78 CNS amounted to 8.5 µM; with DLD-1 colon, 3.84 µM; in the assay on XF 498 CNS it was 12.8 µM; with DMS 273 small cell lung it was 26 µM; in the assay with M19-MEL melanoma, 7.64 µM; with SN12K1 renal it was 5.68 µM. The TGI in the assay on KM20L2 colon was found to be 25 µM; with OVCAR-8 ovarian it was 9.88 µM; with CAKI-1 renal, 13.5 µM; with HOP-18 NSCLC, 30.6 µM.
On to `Cc1cc(N(CCC#N)CCC#N)ccc1C=Nc1ccc(C(=O)NN2C(=O)/C(=C/c3ccc(N(CCC#N)CCC#N)cc3)N=C2c2cc([N+](=O)[O-])ccc2Cl)cc1`, for which the TGI in the assay with SNB-78 CNS, in the assay with DLD-1 colon, with XF 498 CNS, in the assay with LXFL 529 NSCLC, in the assay with DMS 273 small cell lung and in the assay on M19-MEL melanoma was over 100 µM throughout. Also, the TGI with KM20L2 colon, with OVCAR-8 ovarian, with CAKI-1 renal, with DMS 114 small cell lung, in the assay on HOP-18 NSCLC and in the assay on RXF-631 renal was over 100 µM each time.
